The record followed here is patent publication US20240270821A1, “GIP/GLP1/GCG TRI-RECEPTOR AGONISTS AND USES THEREOF” (priority 2023, published 2024).

Like-named read-outs stand apart in the source and are kept apart here. Starred links: 1 amine or outer side, 2 acyl side, 3 side chain; linkers in the order of their positions; H or OH if unused. Non-standard residues stand in square brackets, D forms with d. Groups on a side chain read outwards from the residue. No end group written: not given here. *: point of attachment. C18 diacid = O=C(O)CCCCCCCCCCCCCCCCC(=O)*; αMePhe(2-F) = C[C@](N)(Cc1ccccc1F)C(=O)O; γGlu = O=C(O)[C@H](CCC(=O)[*:2])N[*:1]; αMe4Pal = C[C@](N)(Cc1ccncc1)C(=O)O; αMeY = C[C@](N)(Cc1ccc(O)cc1)C(=O)O; 4Pal = N[C@@H](Cc1ccncc1)C(=O)O; αMeL = CC(C)C[C@](C)(N)C(=O)O; αMeS = C[C@](N)(CO)C(=O)O; Orn = NCCC[C@H](N)C(=O)O; AEEA = NCCOCCOCC(=O)O; Aib = CC(C)(N)C(=O)O

Common to all, as to format: cell-based
For one assay, the target named is human GcgR (Homo sapiens, UniProt P47871). The assay is described as follows: Functional cAMP activity in the presence of 1% HSA. Particulars: read-out: cAMP Rel EC50, hGcgR.
human GcgR, sequence (P47871 26-477): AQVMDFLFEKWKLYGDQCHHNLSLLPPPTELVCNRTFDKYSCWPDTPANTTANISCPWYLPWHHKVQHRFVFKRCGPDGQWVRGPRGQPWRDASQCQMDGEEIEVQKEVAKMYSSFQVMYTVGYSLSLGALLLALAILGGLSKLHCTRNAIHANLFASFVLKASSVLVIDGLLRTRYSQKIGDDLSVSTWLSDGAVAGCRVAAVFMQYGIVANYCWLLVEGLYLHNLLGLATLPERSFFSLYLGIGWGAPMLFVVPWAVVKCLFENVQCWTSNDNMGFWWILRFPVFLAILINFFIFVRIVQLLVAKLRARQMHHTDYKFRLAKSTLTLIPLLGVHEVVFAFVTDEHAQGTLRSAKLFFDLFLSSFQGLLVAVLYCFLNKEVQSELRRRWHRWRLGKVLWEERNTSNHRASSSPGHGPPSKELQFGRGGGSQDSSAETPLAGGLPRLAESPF
For another assay, the target named is hGcgR (Homo sapiens, UniProt P47871). Nature of the assay: Functional cAMP activation in the presence of 0.1% casein (no HSA). Particulars: read-out: Relative cAMP EC50, hGcgR.
hGcgR, sequence (P47871 26-477): as above
Assay [1] deals with T1, hGLP-1R (Homo sapiens, UniProt P43220). Nature of the assay: Functional cAMP activity in the presence of 1% HSA. Conditions: read-out: cAMP Rel EC50, hGLP-1R.
T1 sequence (P43220 24-463): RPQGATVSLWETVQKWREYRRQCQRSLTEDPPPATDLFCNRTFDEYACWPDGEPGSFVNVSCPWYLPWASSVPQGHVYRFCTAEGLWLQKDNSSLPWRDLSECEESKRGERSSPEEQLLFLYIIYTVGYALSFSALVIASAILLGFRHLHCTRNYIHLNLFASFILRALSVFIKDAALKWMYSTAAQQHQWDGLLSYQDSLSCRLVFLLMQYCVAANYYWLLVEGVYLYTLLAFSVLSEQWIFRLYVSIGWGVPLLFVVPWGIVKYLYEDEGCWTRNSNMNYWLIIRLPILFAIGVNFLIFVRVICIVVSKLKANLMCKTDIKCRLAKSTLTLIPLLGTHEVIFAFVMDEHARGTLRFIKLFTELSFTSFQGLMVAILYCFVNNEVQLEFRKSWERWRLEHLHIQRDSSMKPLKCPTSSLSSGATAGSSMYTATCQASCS
In assay [2] the target is T1, hGLP-1R. Nature of the assay: Functional cAMP activation in the presence of 0.1% casein (no HSA). Conditions: read-out: Relative cAMP EC50, hGLP-1R.
For assay [3], the target named is T2, hGIPR (Homo sapiens, UniProt P48546).
T2 sequence (P48546 22-466): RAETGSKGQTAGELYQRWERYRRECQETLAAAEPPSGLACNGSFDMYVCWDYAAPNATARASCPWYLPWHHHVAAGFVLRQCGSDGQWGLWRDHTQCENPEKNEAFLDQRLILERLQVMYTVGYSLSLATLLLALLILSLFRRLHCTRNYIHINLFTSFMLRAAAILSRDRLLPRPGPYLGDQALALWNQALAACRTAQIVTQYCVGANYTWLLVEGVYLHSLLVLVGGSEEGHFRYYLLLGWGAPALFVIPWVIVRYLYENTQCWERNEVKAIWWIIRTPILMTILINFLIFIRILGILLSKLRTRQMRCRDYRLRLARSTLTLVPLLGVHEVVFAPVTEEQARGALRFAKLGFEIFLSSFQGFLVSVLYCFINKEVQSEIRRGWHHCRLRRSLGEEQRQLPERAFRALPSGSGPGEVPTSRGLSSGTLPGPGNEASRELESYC
The assay is described as above. Conditions: read-out: Relative cAMP EC50, hGIPR.

Assay [4] has as its target T2, hGIPR. Nature of the assay: Functional cAMP activity in the presence of 1% HSA. Conditions: read-out: cAMP Rel EC50, hGIPR.
Where [5] appears, read: 0.1% casein, no HSA, geometric mean.
The mark [6] stands for this setting: in the presence of 0.1% casein (no HSA), geometric mean.

The term EC50 denotes the midpoint of the concentration-response curve.
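Wherever Relative cAMP EC50, hGIPR is given: intracellular cAMP rise after 30 min at 37 °C read by HTRF against a standard curve, scaled between buffer alone (0%) and top control ligand concentration (100%), four-parameter fit.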
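Wherever Relative cAMP EC50, hGLP-1R is given: intracellular cAMP rise after 30 min at 37 °C read by HTRF, normalized between buffer only (0%) and maximal control ligand (100%), four-parameter variable-slope fit.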
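Wherever Relative cAMP EC50, hGcgR is given: intracellular cAMP rise after 30 min at 37 °C, read by HTRF against a cAMP standard curve, scaled from buffer only (0%) to maximal control ligand response (100%).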

For the substance “Y[Aib]QGT[αMePhe(2-F)]TSD[4Pal][αMeS]I[αMeL]LD[Orn]K([AEEA-γGlu-C18 diacid])AQ[αMe4Pal]EFI[dE][αMeY]LIEGGPPS[Aib][Orn]PPP[Orn]SE-NH2 [Example 1196]”, the concentration giving a half-maximal response (EC50) is 257 nM on human GcgR; 1.9 nM on hGcgR (setting [5]); 45.4 nM at hGLP-1R [1]; 0.418 nM on hGLP-1R [2] (setting [5]); 0.00756 nM at hGIPR [3] (setting [5]); 0.605 nM on hGIPR [4].
For “Y[Aib]QGT[αMePhe(2-F)]TSD[4Pal][αMeS]I[αMeL]LD[Orn]K([AEEA-γGlu-C18 diacid])AQ[αMe4Pal]EFI[dE][αMeY]LIEGGPSSGAPPPESE-NH2 [Example 1146]”, the EC50 turned out to be 198 nM on human GcgR; 1.22 nM on hGcgR (setting [6]); 40.1 nM on hGLP-1R [1]; 0.281 nM at hGLP-1R [2] (setting [6]); 0.00628 nM at hGIPR [3] (setting [6]); 0.825 nM at hGIPR [4].
For “Y[Aib]QGT[αMePhe(2-F)]TSD[4Pal][αMeS]I[αMeL]LD[Orn]K([AEEA-γGlu-C18 diacid])AQ[αMe4Pal]EFI[dE][αMeY]LIEGGPSSGEPPPEGTGE-NH2 [Example 763]”, the half-maximal effective concentration (EC50) at human GcgR was 222 nM; at hGcgR it was 1.57 nM; on hGLP-1R [1], 42.5 nM; on hGLP-1R [2] it was 0.302 nM; at hGIPR [3] it was 0.00719 nM; on hGIPR [4] it was 1.16 nM.
“Y[Aib]QGT[αMePhe(2-F)]TSD[4Pal][αMeS]I[αMeL]LD[Orn]K([AEEA-γGlu-C18 diacid])AQ[αMe4Pal]EFI[dE][αMeY]LIEGGPSSGEPPPESE-NH2 [Example 1147]”: the concentration for a half-maximal effect (EC50) was found to be 167 nM at human GcgR; 1.17 nM at hGcgR (setting [6]); 45.4 nM on hGLP-1R [1]; 0.347 nM at hGLP-1R [2] (setting [6]); 0.00753 nM at hGIPR [3] (setting [6]); 0.831 nM on hGIPR [4].
Consider “Y[Aib]QGT[αMePhe(2-F)]TSD[4Pal][αMeS]I[αMeL]LD[Orn]K([AEEA-γGlu-C18 diacid])AQ[αMe4Pal]EFI[dE][αMeY]LIEGGPSSGEPPPSGE-NH2 [Example 1141]”, for which the 50% effective concentration (EC50) on human GcgR worked out at 169 nM; on hGcgR (setting [6]), 1.15 nM; on hGLP-1R [1], 47.5 nM; at hGLP-1R [2] (setting [6]), 0.412 nM; at hGIPR [3] (setting [6]), 0.00921 nM; on hGIPR [4], 0.816 nM.
With “Y[Aib]QGT[αMePhe(2-F)]TSD[4Pal][αMeS]I[αMeL]LD[Orn]K([AEEA-γGlu-C18 diacid])AQ[αMe4Pal]EFI[dE][αMeY]LVEGGPSSGAPPPSGGGE-NH2 [Example 769]”, the EC50 was 269 nM at human GcgR; 1.33 nM at hGcgR; 34 nM on hGLP-1R [1]; 0.247 nM at hGLP-1R [2]; 0.00852 nM at hGIPR [3]; 1.02 nM at hGIPR [4].
With “Y[Aib]QGT[αMePhe(2-F)]TSD[4Pal][αMeS]I[αMeL]LD[Orn]K([AEEA-γGlu-C18 diacid])AQ[αMe4Pal]EFI[dE][αMeY]LVEGGPSSGEPPPSGGGE-NH2 [Example 735]”, the 50% effective concentration (EC50) at human GcgR was determined as 236 nM; on hGcgR it was 1.97 nM; on hGLP-1R [1], 40.7 nM; at hGLP-1R [2], 0.386 nM; on hGIPR [3], 0.012 nM; at hGIPR [4], 1.32 nM.
For the substance “Y[Aib]QGT[αMePhe(2-F)]TSD[4Pal][αMeS]I[αMeL]LD[Orn]K([AEEA-γGlu-C18 diacid])AQ[αMe4Pal]EFI[dQ][αMeY]LIEGGPSSGAPPPSGS-NH2 [Example 1202]”, the concentration for a half-maximal effect (EC50) at human GcgR was 70.3 nM; on hGcgR (setting [5]) it was 0.5 nM; at hGLP-1R [1], 23.1 nM; at hGLP-1R [2] (setting [5]), 0.237 nM; on hGIPR [3] (setting [5]) it was 0.00635 nM; at hGIPR [4], 0.471 nM.
Turning to “Y[Aib]QGT[αMePhe(2-F)]TSD[4Pal][αMeS]I[αMeL]LD[Orn]K([AEEA-γGlu-C18 diacid])YQ[αMe4Pal]EFI[dE][αMeY]LVEGGPSSGAPPPSGS-NH2 [Example 767]”, the EC50 on human GcgR was found to be 207 nM; at hGcgR, 1.13 nM; at hGLP-1R [1], 56.8 nM; at hGLP-1R [2], 0.299 nM; on hGIPR [3] it was 0.00792 nM; at hGIPR [4], 1.51 nM.
As for “Y[Aib]QGT[αMePhe(2-F)]TSD[4Pal][αMeS]I[αMeL]LD[Orn]K([Glu-γGlu-C18 diacid])AQ[Aib][Orn]FI[dE][αMeY]LSEGGPSSGEPPPSGTEE-NH2 [Example 564]”, the concentration for a half-maximal effect (EC50) on human GcgR is 667 nM; at hGcgR, 10.2 nM; on hGLP-1R [1], 101 nM; at hGLP-1R [2], 1.33 nM; at hGIPR [3] it was 0.176 nM; on hGIPR [4], 10.8 nM.
Regarding “Y[Aib]QGT[αMePhe(2-F)]TSD[4Pal][αMeS]I[αMeL]LD[Orn]K([γGlu-γGlu-C18 diacid])AA[Aib]EFI[dE][αMeY]LIEGGPSSGEPPPSGGGE-NH2 [Example 748]”, the EC50 on human GcgR amounted to 156 nM; on hGcgR it was 1.42 nM; on hGLP-1R [1] it was 22.9 nM; at hGLP-1R [2] it was 0.258 nM; on hGIPR [3], 0.0105 nM; at hGIPR [4], 0.865 nM.
As to “Y[Aib]QGT[αMePhe(2-F)]TSD[4Pal][αMeS]I[αMeL]LD[Orn]K([γGlu-γGlu-C18 diacid])AQ[Aib]NFI[dE][αMeY]LQEGGPSSGEPPPEGTE-NH2 [Example 526]”, the EC50 was 530 nM on human GcgR; 8.62 nM on hGcgR; 22.9 nM at hGLP-1R [1]; 0.421 nM at hGLP-1R [2]; 0.0364 nM on hGIPR [3]; 2.12 nM on hGIPR [4].
Regarding “Y[Aib]QGT[αMePhe(2-F)]TSD[4Pal][αMeS]I[αMeL]LD[Orn]K([γGlu-γGlu-C18 diacid])AQ[Aib]QFI[dE][αMeY]LQEGGPSSGEPPPEGTE-NH2 [Example 528]”, the EC50 at human GcgR was 474 nM; at hGcgR it was 7 nM; on hGLP-1R [1] it was 24.3 nM; at hGLP-1R [2], 0.434 nM; on hGIPR [3], 0.0333 nM; at hGIPR [4], 1.55 nM.
With “Y[Aib]QGT[αMePhe(2-F)]TSD[4Pal][αMeS]I[αMeL]LD[Orn]K([γGlu-γGlu-C18 diacid])AQ[Aib][Orn]FI[dE]YLIEGGPSSGEPPPSGTE-NH2 [Example 521]”, the 50% effective concentration (EC50) is 275 nM on human GcgR; 4.04 nM at hGcgR; 24.8 nM on hGLP-1R [1]; 0.341 nM on hGLP-1R [2]; 0.0164 nM at hGIPR [3]; 0.967 nM at hGIPR [4].
As to “Y[Aib]QGT[αMePhe(2-F)]TSD[4Pal][αMeS]I[αMeL]LD[Orn]K([γGlu-γGlu-C18 diacid])AQ[Aib][Orn]FI[dE][αMeY]LAEGGPSSGEPPPSGTEE-NH2 [Example 571]”, the EC50 on human GcgR was determined as 243 nM; at hGcgR, 3.27 nM; on hGLP-1R [1], 42.7 nM; on hGLP-1R [2], 0.603 nM; at hGIPR [3], 0.0746 nM; at hGIPR [4] it was 4.23 nM.
Take “Y[Aib]QGT[αMePhe(2-F)]TSD[4Pal][αMeS]I[αMeL]LD[Orn]K([γGlu-γGlu-C18 diacid])AQ[Aib][Orn]FI[dE][αMeY]LQEGGPSSGEPPPEGAEE-NH2 [Example 587]”: the 50% effective concentration (EC50) came to 252 nM on human GcgR; 5.38 nM on hGcgR; 31.9 nM on hGLP-1R [1]; 0.611 nM at hGLP-1R [2]; 0.0635 nM on hGIPR [3]; 3.47 nM on hGIPR [4].
For the substance “Y[Aib]QGT[αMePhe(2-F)]TSD[4Pal][αMeS]I[αMeL]LD[Orn]K([γGlu-γGlu-C18 diacid])AQ[Aib][Orn]FI[dE][αMeY]LQEGGPSSGEPPPEGGEE-NH2 [Example 586]”, the EC50 at human GcgR stood at 302 nM; at hGcgR, 4.58 nM; at hGLP-1R [1], 29.1 nM; on hGLP-1R [2] it was 0.593 nM; at hGIPR [3], 0.0461 nM; on hGIPR [4], 2.46 nM.
With “Y[Aib]QGT[αMePhe(2-F)]TSD[4Pal][αMeS]I[αMeL]LD[Orn]K([γGlu-γGlu-C18 diacid])AQ[Aib][Orn]FI[dE][αMeY]LQEGGPSSGEPPPEGTE-NH2 [Example 503]”, the EC50 stood at 233 nM at human GcgR; 3.98 nM on hGcgR; 26.1 nM at hGLP-1R [1]; 0.525 nM at hGLP-1R [2]; 0.0518 nM at hGIPR [3]; 2.02 nM at hGIPR [4].
“Y[Aib]QGT[αMePhe(2-F)]TSD[4Pal][αMeS]I[αMeL]LD[Orn]K([γGlu-γGlu-C18 diacid])AQ[Aib][Orn]FI[dE][αMeY]LQEGGPSSGEPPPSGTE-NH2 [Example 504]”: the EC50 on human GcgR was found to be 162 nM; at hGcgR, 2.83 nM; on hGLP-1R [1], 16.5 nM; on hGLP-1R [2], 0.253 nM; on hGIPR [3], 0.0364 nM; on hGIPR [4], 1.8 nM.
